Reference: US4835100A (priority 1986, dated 1989)
“And” between values parts separate entries of the source, which are not always exact repeats. Identical values can stand only once.

Key:
[1] = tested on: monoclonal antibody (2F5); type: binding, mouse
[2] = tested on: monoclonal antibody (2F5); type: binding, mouse; remark: listed apart in the source
[3] = tested on: monoclonal antibody (1C6); type: binding, mouse
[4] = tested on: serum antibody of mouse 1; type: binding
[5] = tested on: serum antibody of mouse 2; type: binding
monoclonal antibody 4E1 = settings: cited from earlier work
[6] = tested on: monoclonal antibody of Groopman et al; settings: cited from earlier work
[7] = tested on: Rabbit polyclonal anti-aflatoxin B1 antibody; settings: cited from earlier work

Row | Structure (SMILES) | % Cross-reactivity 1 (2F5) [1] [%] | concentration for 50% inhibition of antibody binding in the ELISA [1] [ng/mL] | % Cross-reactivity 2 (2F5) [2] [%] | % Cross-reactivity 3 (1C6) [3] [%] | Percent Inhibition of serum antibody binding to solid phase [4] | Percent Inhibition of serum antibody binding to solid phase [5] | % Cross-reactivity 4 (monoclonal antibody 4E1) [%] | % Cross-reactivity 5 [6] [%] | % Cross-reactivity Rabbit [7] [%]
1 | COc1cc2c(c3oc(=O)c4c(c13)CCC4=O)[C@@H]1C=CO[C@@H]1O2 [Aflatoxin B1, aflatoxin B1] | 100.0 | 2.8 | 100.0 | 100.00 | 0 | 44.6 and 44.3 and 28.7 and 33.6 and 23.5 | 100.0 | 100.0 | 100.0
2 | COc1cc2c(c3oc(=O)c4c(c13)CCC4=O)[C@@H]1CCO[C@@H]1O2 [Aflatoxin B2, aflatoxin B2] | 4.0 | 70.8 | 0.2 | 6.7 |  |  | 12.6 | 100.0 | 131.6
3 | COc1cc2c(c3oc(=O)c4c(c13)CCOC4=O)[C@@H]1C=CO[C@@H]1O2 [Aflatoxin G1, aflatoxin G1] | 175.0 | 1.6 | 26.6 | 193.0 |  |  | 14.3 | 5.0 | 31.2
4 | COc1cc2c(c3oc(=O)c4c(c13)CCOC4=O)[C@@H]1CCO[C@@H]1O2 [Aflatoxin G2, aflatoxin G2] | 5.0 | 56.2 | < 0.01 | 2.3 |  |  | 1.2 | 3.6 | 1.3
5 | COc1cc2c(c3oc(=O)c4c(c13)CCC4=O)[C@]1(O)C=CO[C@@H]1O2 [Aflatoxin M1, aflatoxin M1] | 4.5 | 63.1 | 3.7 | 3.9 |  |  | 7.3 | 100.0 | 0
